# Experimental data from patent US11498899B2, “Nitrone herbicides” (FMC Corporation, priority 2016, dated 2022).
# How the values were obtained:
# [1] = tested on: barnyardgrass (Echinochloa crus-galli); experiment: Test A preemergence, visual injury rating 0-100 (0 no effect, 100 complete control); format: in vivo; settings: for Barnyardgrass plant response rating: 0 to 100 scale
# rice (Oryza sativa) = experiment: Test B flooded paddy test, visual rating 0-100 (0 no effect, 100 complete control); settings: Flood, 250 g ai/ha, applied to paddy water, rated after 13 to 15 days
# [2] = tested on: ducksalad (Heteranthera limosa); experiment: Test B flooded paddy test, visual rating 0-100; settings: Flood, 250 g ai/ha, applied to paddy water, rated after 13 to 15 days
# kochia (Kochia scoparia) [3] = experiment: Test A postemergence, visual injury rating 0-100; format: in vivo; settings: 0 to 100 scale
# [4] = tested on: ryegrass, Italian (Italian ryegrass, Lolium multiflorum); experiment: Test A postemergence, visual injury rating 0-100; format: in vivo; settings: 0 to 100 scale
# [5] = tested on: pigweed (Amaranthus retroflexus); experiment: Test A postemergence, visual injury rating 0-100; format: in vivo; settings: 0 to 100 scale
# corn (Zea mays) = experiment: Test A postemergence, visual injury rating 0-100; format: in vivo; settings: 0 to 100 scale
# [6] = tested on: wheat (Triticum aestivum); experiment: Test A postemergence, visual injury rating 0-100; format: in vivo; settings: 0 to 100 scale
# [7] = tested on: barnyardgrass (Echinochloa crus-galli); experiment: Test A postemergence, visual injury rating 0-100; format: in vivo; settings: 0 to 100 scale
# [8] = tested on: blackgrass (Alopecurus myosuroides); experiment: Test A postemergence, visual injury rating 0-100; format: in vivo; settings: 0 to 100 scale
# [9] = tested on: foxtail, green (green foxtail, Setaria viridis); experiment: Test A postemergence, visual injury rating 0-100; format: in vivo; settings: 0 to 100 scale
# [10] = tested on: ragweed (common ragweed, Ambrosia elatior); experiment: Test A postemergence, visual injury rating 0-100; format: in vivo; settings: 0 to 100 scale
# [11] = tested on: barnyardgrass (Echinochloa crus-galli); experiment: Test B flooded paddy test, visual rating 0-100; settings: Flood, 250 g ai/ha, applied to paddy water, rated after 13 to 15 days
# kochia (Kochia scoparia) [12] = experiment: Test A preemergence, visual injury rating 0-100; format: in vivo; settings: for Kochia plant response rating: 0 to 100 scale
# [13] = tested on: ryegrass, Italian (Italian ryegrass, Lolium multiflorum); experiment: Test A preemergence, visual injury rating 0-100; format: in vivo; settings: for Ryegrass, Italian plant response rating: 0 to 100 scale
# [14] = tested on: pigweed (Amaranthus retroflexus); experiment: Test A preemergence, visual injury rating 0-100; format: in vivo; settings: for Pigweed plant response rating: 0 to 100 scale
# [15] = tested on: foxtail, green (green foxtail, Setaria viridis); experiment: Test A preemergence, visual injury rating 0-100; format: in vivo; settings: for Foxtail, Green plant response rating: 0 to 100 scale
# [16] = tested on: ragweed (common ragweed, Ambrosia elatior); experiment: Test A preemergence, visual injury rating 0-100; format: in vivo; settings: for Ragweed plant response rating: 0 to 100 scale
# [17] = tested on: galium (catchweed bedstraw, Galium aparine); experiment: Test A postemergence, visual injury rating 0-100; format: in vivo; settings: 0 to 100 scale
# [18] = tested on: foxtail, giant (giant foxtail, Setaria faberii); experiment: Test A postemergence, visual injury rating 0-100; format: in vivo; settings: 0 to 100 scale
# [19] = tested on: foxtail, giant (giant foxtail, Setaria faberii); experiment: Test A preemergence, visual injury rating 0-100; format: in vivo
Structure (SMILES),Barnyardgrass plant response rating (0 to 100 scale) ([1]; 125 g ai/ha),Rice plant response rating (0 to 100 scale) (rice (Oryza sativa)),Ducksalad plant response rating (0 to 100 scale) [2],Kochia plant response rating (kochia (Kochia scoparia) [3]; 125 g ai/ha),Kochia plant response rating (kochia (Kochia scoparia) [3]; 500 g ai/ha),"Ryegrass, Italian plant response rating ([4]; 125 g ai/ha)","Ryegrass, Italian plant response rating ([4]; 500 g ai/ha)",Pigweed plant response rating ([5]; 125 g ai/ha),Pigweed plant response rating ([5]; 500 g ai/ha),Corn plant response rating (corn (Zea mays); 125 g ai/ha),Corn plant response rating (corn (Zea mays); 500 g ai/ha),Wheat plant response rating ([6]; 125 g ai/ha),Wheat plant response rating ([6]; 500 g ai/ha),Barnyardgrass plant response rating ([7]; 125 g ai/ha),Barnyardgrass plant response rating ([7]; 500 g ai/ha),Blackgrass plant response rating ([8]; 125 g ai/ha),Blackgrass plant response rating ([8]; 500 g ai/ha),Ragweed plant response rating ([10]; 125 g ai/ha),Ragweed plant response rating ([10]; 500 g ai/ha),Barnyardgrass plant response rating (0 to 100 scale) [11],also measured
CC1=[N+]([O-])C(C(=O)Nc2cccc(F)c2F)C(c2ccc(C#N)cc2)C1 (racemic) [Compound 22],20,30,40,0,30,0,0,0,20,0,0,0,0,0,60,0,30,0,0,0,"Barnyardgrass plant response rating ([1]; 500 g ai/ha): 80; Foxtail, Green plant response rating ([9]; 125 g ai/ha): 0; Foxtail, Green plant response rating ([9]; 500 g ai/ha): 50; Kochia plant response rating (0 to 100 scale) (kochia (Kochia scoparia) [12]; 125 g ai/ha): 0; Kochia plant response rating (kochia (Kochia scoparia) [12]; 500 g ai/ha): 20; Ryegrass, Italian plant response rating (0 to 100 scale) ([13]; 125 g ai/ha): 0; Ryegrass, Italian plant response rating ([13]; 500 g ai/ha): 0; Pigweed plant response rating (0 to 100 scale) ([14]; 125 g ai/ha): 0; Pigweed plant response rating ([14]; 500 g ai/ha): 20; Foxtail, Green plant response rating (0 to 100 scale) ([15]; 125 g ai/ha): 40; Foxtail, Green plant response rating ([15]; 500 g ai/ha): 70; Ragweed plant response rating (0 to 100 scale) ([16]; 125 g ai/ha): 70; Ragweed plant response rating ([16]; 500 g ai/ha): 30"
CC1=[N+]([O-])C(C(=O)Nc2cccc(F)c2F)C(c2cccc(C#N)c2)C1 (racemic) [Compound 23],60,0,60,0,20,0,20,0,0,0,0,20,50,70,80,0,0,0,0,50,"Barnyardgrass plant response rating ([1]; 500 g ai/ha): 90; Foxtail, Green plant response rating ([9]; 125 g ai/ha): 30; Foxtail, Green plant response rating ([9]; 500 g ai/ha): 80; Kochia plant response rating (0 to 100 scale) (kochia (Kochia scoparia) [12]; 125 g ai/ha): 20; Kochia plant response rating (kochia (Kochia scoparia) [12]; 500 g ai/ha): 50; Ryegrass, Italian plant response rating (0 to 100 scale) ([13]; 125 g ai/ha): 0; Ryegrass, Italian plant response rating ([13]; 500 g ai/ha): 0; Pigweed plant response rating (0 to 100 scale) ([14]; 125 g ai/ha): 0; Pigweed plant response rating ([14]; 500 g ai/ha): 0; Foxtail, Green plant response rating (0 to 100 scale) ([15]; 125 g ai/ha): 80; Foxtail, Green plant response rating ([15]; 500 g ai/ha): 90; Ragweed plant response rating (0 to 100 scale) ([16]; 125 g ai/ha): 50; Ragweed plant response rating ([16]; 500 g ai/ha): 80"
CC1=[N+]([O-])C(C(=O)Nc2cccc(F)c2F)C(c2ccc(C)c(C)c2)C1 (racemic) [Compound 24],90,0,85,50,70,90,80,30,60,50,90,50,90,90,90,20,60,20,50,70,"Barnyardgrass plant response rating ([1]; 500 g ai/ha): 90; Foxtail, Green plant response rating ([9]; 125 g ai/ha): 80; Foxtail, Green plant response rating ([9]; 500 g ai/ha): 90; Kochia plant response rating (0 to 100 scale) (kochia (Kochia scoparia) [12]; 125 g ai/ha): 40; Kochia plant response rating (kochia (Kochia scoparia) [12]; 500 g ai/ha): 90; Ryegrass, Italian plant response rating (0 to 100 scale) ([13]; 125 g ai/ha): 40; Ryegrass, Italian plant response rating ([13]; 500 g ai/ha): 70; Pigweed plant response rating (0 to 100 scale) ([14]; 125 g ai/ha): 20; Pigweed plant response rating ([14]; 500 g ai/ha): 50; Foxtail, Green plant response rating (0 to 100 scale) ([15]; 125 g ai/ha): 90; Foxtail, Green plant response rating ([15]; 500 g ai/ha): 90; Ragweed plant response rating (0 to 100 scale) ([16]; 125 g ai/ha): 60; Ragweed plant response rating ([16]; 500 g ai/ha): 80"
CC1=[N+]([O-])C(C(=O)Nc2cccc(F)c2Cl)C(c2ccc(C(F)(F)F)cc2)C1 (racemic) [Compound 31],50,0,0,0,10,20,20,0,30,0,10,0,40,30,90,20,80,0,20,0,"Barnyardgrass plant response rating ([1]; 500 g ai/ha): 100; Foxtail, Green plant response rating ([9]; 125 g ai/ha): 40; Foxtail, Green plant response rating ([9]; 500 g ai/ha): 90; Kochia plant response rating (0 to 100 scale) (kochia (Kochia scoparia) [12]; 125 g ai/ha): 0; Kochia plant response rating (0 to 100 scale) (kochia (Kochia scoparia) [12]; 500 g ai/ha): 80; Ryegrass, Italian plant response rating (0 to 100 scale) ([13]; 125 g ai/ha): 0; Ryegrass, Italian plant response rating (0 to 100 scale) ([13]; 500 g ai/ha): 20; Pigweed plant response rating (0 to 100 scale) ([14]; 125 g ai/ha): 0; Pigweed plant response rating (0 to 100 scale) ([14]; 500 g ai/ha): 60; Foxtail, Green plant response rating (0 to 100 scale) ([15]; 125 g ai/ha): 90; Foxtail, Green plant response rating (0 to 100 scale) ([15]; 500 g ai/ha): 100; Ragweed plant response rating (0 to 100 scale) ([16]; 125 g ai/ha): 0; Ragweed plant response rating (0 to 100 scale) ([16]; 500 g ai/ha): 90"
CC1=[N+]([O-])C(C(=O)Nc2cccc(F)c2F)C(c2ccc(C(F)(F)F)cc2F)C1 (centres unmarked) [Compound 101],90,0,90,30,60,50,50,0,60,20,70,10,60,50,90,70,80,30,60,50,"Barnyardgrass plant response rating (0 to 100 scale) ([1]; 500 g ai/ha): 90; Galium plant response rating ([17]; 125 g ai/ha): 70; Galium plant response rating ([17]; 500 g ai/ha): 80; Foxtail, Giant plant response rating ([18]; 125 g ai/ha): 80; Foxtail, Giant plant response rating ([18]; 500 g ai/ha): 90; Kochia plant response rating (0 to 100 scale) (kochia (Kochia scoparia) [12]; 125 g ai/ha): 30; Kochia plant response rating (0 to 100 scale) (kochia (Kochia scoparia) [12]; 500 g ai/ha): 90; Ryegrass, Italian plant response rating (0 to 100 scale) ([13]; 125 g ai/ha): 40; Ryegrass, Italian plant response rating (0 to 100 scale) ([13]; 500 g ai/ha): 90; Foxtail, Giant plant response rating (0 to 100 scale) ([19]; 125 g ai/ha): 90; Foxtail, Giant plant response rating (0 to 100 scale) ([19]; 500 g ai/ha): 90; Pigweed plant response rating (0 to 100 scale) ([14]; 125 g ai/ha): 70; Pigweed plant response rating (0 to 100 scale) ([14]; 500 g ai/ha): 90; Ragweed plant response rating (0 to 100 scale) ([16]; 125 g ai/ha): 10; Ragweed plant response rating (0 to 100 scale) ([16]; 500 g ai/ha): 90"
